We go through 25 molecules from patent US7728003B2, “5-oxo-5,8-dihydro-pyrido-pyrimidines as inhibitors of c-fms kinase” (Janssen Pharmaceutica N.V., priority 2005, dated 2010).

Structures are written as SMILES.

For this assay, the target named is c-fms (Homo sapiens, UniProt P07333). Briefly: c-fms autophosphorylation, fluorescence polarization competition immunoassay. Format: biochemical. The following applies: 10 nM c-fms, 1 mM ATP; for inhibition at 0.1 µM: test concentration 0.1 μM, read-out: c-fms Autophosphorylation Percent Inhibition, % @ 0.1 μM; for inhibition at 1 µM: test concentration 1 μM, read-out: c-fms Autophosphorylation Percent Inhibition, % @ 1 μM; for IC50: average of three independent measurements. The protocol:
The assay buffer used was 100 mM 4-(2-hydroxyethyl)piperazine 1-ethanesulfonic acid (HEPES), pH 7.5, 1 mM 1,4-dithio-DL-threitol (DTT), 0.01% (v/v) Tween-20. Compounds were diluted in assay buffer containing 4% dimethylsulfoxide (DMSO) just prior to the assay. To each well, 5 μL of compound were added followed by the addition of 3 μL of a mix containing 33 nM c-fms and 16.7 mM MgCl2 (Sigma) in assay buffer. The kinase reaction was initiated by adding 2 μL of 5 mM ATP (Sigma) in assay buffer. The final concentrations in the assay were 10 nM c-fms, 1 mM ATP, 5 mM MgCl2, 2% DMSO. Control reactions were ran in each plate: in positive and negative control wells, assay buffer (made 4% in DMSO) was substituted for the compound; in addition, positive control wells received 1.2 μL of 50 mM ethylenediaminetetraaceticacid (EDTA).
The plates were incubated at room temperature for 45 min. At the end of the incubation, the reaction was quenched with 1.2 μL of 50 mM EDTA (EDTA was not added to the positive control wells at this point; see above). Following a 5-min incubation, each well received 10 μL of a 1:1:3 mixture of anti-phosphotyrosine antibody, 10X, PTK green tracer, 10X (vortexed), FP dilution buffer, respectively (all from PanVera, cat. # P2837). The plate was covered, incubated for 30 min at room temperature and the fluorescence polarization was read on the Analyst. The instrument settings were: 485 nm excitation filter; 530 nm emission filter; Z height: middle of well; G factor: 0.93.
The percent inhibition is shown in Table 1 at the indicated test concentration. The IC50 shown in Table 2 are averages of three independent measurements.
(In general: Polarisation of emitted light reports the rotation of a fluorescent probe.)

One may read the inhibition as how much of the control response was suppressed. The term IC50 denotes the concentration needed to halve the response being measured. A higher IC50 goes with lower potency.

Sequence of c-fms (P07333 20-972): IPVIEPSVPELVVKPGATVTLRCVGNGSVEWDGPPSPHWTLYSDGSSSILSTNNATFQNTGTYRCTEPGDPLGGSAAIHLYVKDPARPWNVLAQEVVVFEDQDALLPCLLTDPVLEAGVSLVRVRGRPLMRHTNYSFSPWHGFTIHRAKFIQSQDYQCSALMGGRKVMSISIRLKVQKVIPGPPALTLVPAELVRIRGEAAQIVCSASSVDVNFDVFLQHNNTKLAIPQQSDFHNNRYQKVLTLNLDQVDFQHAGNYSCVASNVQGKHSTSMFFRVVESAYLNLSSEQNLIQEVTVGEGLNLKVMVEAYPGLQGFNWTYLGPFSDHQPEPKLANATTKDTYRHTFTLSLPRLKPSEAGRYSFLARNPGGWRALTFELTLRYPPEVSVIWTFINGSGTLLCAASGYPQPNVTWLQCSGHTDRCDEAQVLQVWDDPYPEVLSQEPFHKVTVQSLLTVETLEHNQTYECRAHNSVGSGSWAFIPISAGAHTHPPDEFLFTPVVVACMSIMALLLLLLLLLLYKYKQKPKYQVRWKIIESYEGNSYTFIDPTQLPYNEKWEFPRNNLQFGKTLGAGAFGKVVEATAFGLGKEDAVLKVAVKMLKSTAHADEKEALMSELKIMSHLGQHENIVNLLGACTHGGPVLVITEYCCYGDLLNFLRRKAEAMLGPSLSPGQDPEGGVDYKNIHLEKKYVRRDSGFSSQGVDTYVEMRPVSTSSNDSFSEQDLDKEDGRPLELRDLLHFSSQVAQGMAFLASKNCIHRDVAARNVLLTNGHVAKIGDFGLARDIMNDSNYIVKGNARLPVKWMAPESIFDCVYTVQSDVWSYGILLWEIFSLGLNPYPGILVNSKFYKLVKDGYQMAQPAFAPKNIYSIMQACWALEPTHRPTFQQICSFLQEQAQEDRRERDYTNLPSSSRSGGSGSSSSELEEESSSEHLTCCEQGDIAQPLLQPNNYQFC

In the case of `CNC(=O)c1cn(-c2ccc3c(c2)CCC3)c2nc(NCCCN3CCN(C)CC3)ncc2c1=O` [Cpd 15, 8-Indan-5-yl-2-[3-(4-methyl-piperazin-1-yl)-propylamino]-5-oxo-5,8-dihydro-pyrido[2,3-d]pyrimidine-6-carboxylic acid methylamide], the inhibition at 0.1 µM was 8% and the inhibition at 1 µM came to 29%.
As to `CNC(=O)c1cn(-c2ccc3c(c2)CCC3)c2nc(NCCOC)ncc2c1=O` [Cpd 16, 8-Indan-5-yl-2-(2-methoxy-ethylamino)-5-oxo-5,8-dihydro-pyrido[2,3-d]pyrimidine-6-carboxylic acid methylamide], the inhibition at 0.1 µM was 12% and the inhibition at 1 µM turned out to be 39%.
Take `NC(=O)c1cn(C2CCCCC2)c2nc(NCCCn3ccnc3)ncc2c1=O` [Cpd 28, 8-Cyclohexyl-2-(3-imidazol-1-yl-propylamino)-5-oxo-5,8-dihydro-pyrido[2,3-d]pyrimidine-6-carboxylic acid amide]: the inhibition at 0.1 µM worked out at 31% and the inhibition at 1 µM was 69%.
As for `CONC(=O)c1cn(C2CCCCC2)c2nc(NCc3cc(OC)cc(OC)c3)ncc2c1=O` [Cpd 52, 8-Cyclohexyl-2-(3,5-dimethoxy-benzylamino)-5-oxo-5,8-dihydro-pyrido[2,3-d]pyrimidine-6-carboxylic acid methoxy-amide], the inhibition at 0.1 µM came out at 23% and the inhibition at 1 µM was found to be 53%.
As to `CONC(=O)c1cn(C2CCCCC2)c2nc(NCCCN(C)C)ncc2c1=O` [Cpd 42, 8-Cyclohexyl-2-(3-dimethylamino-propylamino)-5-oxo-5,8-dihydro-pyrido[2,3-d]pyrimidine-6-carboxylic acid methoxy-amide], the inhibition at 0.1 µM is 17% and the inhibition at 1 µM was 40%.
Turning to `NC(=O)c1cn(C2CCCCC2)c2nc(NCCN3CCCCC3)ncc2c1=O` [Cpd 38, 8-Cyclohexyl-5-oxo-2-(2-piperidin-1-yl-ethylamino)-5,8-dihydro-pyrido[2,3-d]pyrimidine-6-carboxylic acid amide], the inhibition at 0.1 µM stood at 19% and the inhibition at 1 µM was found to be 56%.
`NC(=O)c1cn(-c2ccc3c(c2)CCC3)c2nc(NCCCn3ccnc3)ncc2c1=O` [Cpd 3, 2-(3-Imidazol-1-yl-propylamino)-8-indan-5-yl-5-oxo-5,8-dihydro-pyrido[2,3-d]pyrimidine-6-carboxylic acid amide] gave a 50% inhibitory concentration (IC50) of 2300 nM. That is a single-digit micromolar value.
For the molecule `COc1cc(CNc2ncc3c(=O)c(C(N)=O)cn(C4CCCCC4)c3n2)cc(OC)c1` [Cpd 40, 8-Cyclohexyl-2-(3,5-dimethoxy-benzylamino)-5-oxo-5,8-dihydro-pyrido[2,3-d]pyrimidine-6-carboxylic acid amide], the inhibition at 0.1 µM is 10% and the inhibition at 1 µM worked out at 47%.
On to `COCCCNc1ncc2c(=O)c(C(N)=O)cn(C3CCCCC3)c2n1` [Cpd 31, 8-Cyclohexyl-2-(3-methoxy-propylamino)-5-oxo-5,8-dihydro-pyrido[2,3-d]pyrimidine-6-carboxylic acid amide], for which the inhibition at 0.1 µM was found to be 25% and the inhibition at 1 µM worked out at 62%.
With `NC(=O)c1cn(-c2ccc3c(c2)CCC3)c2nc(NCCN3CCCCC3)ncc2c1=O` [Cpd 2, 8-Indan-5-yl-5-oxo-2-(2-piperidin-1-yl-ethylamino)-5,8-dihydro-pyrido[2,3-d]pyrimidine-6-carboxylic acid amide], the inhibition at 0.1 µM was 15% and the inhibition at 1 µM was determined as 20%.
As to `CNC(=O)c1cn(C2CCCCC2)c2nc(NCCc3ccc(OC)cc3)ncc2c1=O` [Cpd 58, 8-Cyclohexyl-2-[2-(4-methoxy-phenyl)-ethylamino]-5-oxo-5,8-dihydro-pyrido[2,3-d]pyrimidine-6-carboxylic acid methylamide], the inhibition at 0.1 µM amounted to 13% and the inhibition at 1 µM amounted to 26%.
As to `NC(=O)c1cn(C2CCCCC2)c2nc(NCCCN3CCOCC3)ncc2c1=O` [Cpd 30, 8-Cyclohexyl-2-(3-morpholin-4-yl-propylamino)-5-oxo-5,8-dihydro-pyrido[2,3-d]pyrimidine-6-carboxylic acid amide], the inhibition at 0.1 µM was 24% and the inhibition at 1 µM came out at 68%.
In the case of `CNC(=O)c1cn(-c2ccc3c(c2)CCC3)c2nc(NCCc3ccc(OC)cc3)ncc2c1=O` [Cpd 17, 8-Indan-5-yl-2-[2-(4-methoxy-phenyl)-ethylamino]-5-oxo-5,8-dihydro-pyrido[2,3-d]pyrimidine-6-carboxylic acid methylamide], the inhibition at 0.1 µM worked out at 15% and the inhibition at 1 µM is 36%.
For `NC(=O)c1cn(-c2ccc3c(c2)CCC3)c2nc(NCCCN3CCOCC3)ncc2c1=O` [Cpd 5], the IC50 came to 2600 nM.
In the case of `CONC(=O)c1cn(-c2ccc3c(c2)CCC3)c2nc(NCCCn3ccnc3)ncc2c1=O` [Cpd 19, 2-(3-Imidazol-1-yl-propylamino)-8-indan-5-yl-5-oxo-5,8-dihydro-pyrido[2,3-d]pyrimidine-6-carboxylic acid methoxy-amide], the inhibition at 0.1 µM amounted to 36% and the inhibition at 1 µM was found to be 70%.
Turning to `CONC(=O)c1cn(-c2ccc3c(c2)CCC3)c2nc(NCCN3CCCCC3)ncc2c1=O` [Cpd 25, 8-Indan-5-yl-5-oxo-2-(2-piperidin-1-yl-ethylamino)-5,8-dihydro-pyrido[2,3-d]pyrimidine-6-carboxylic acid methoxy-amide], the inhibition at 0.1 µM was 6% and the inhibition at 1 µM was 30%.
With `CNC(=O)c1cn(-c2ccc3c(c2)CCC3)c2nc(NCCN3CCOCC3)ncc2c1=O` [Cpd 18, 8-Indan-5-yl-2-(2-morpholin-4-yl-ethylamino)-5-oxo-5,8-dihydro-pyrido[2,3-d]pyrimidine-6-carboxylic acid methylamide], the inhibition at 0.1 µM came to 12% and the inhibition at 1 µM was determined as 35%.
With `CN1CCN(CCCNc2ncc3c(=O)c(C(N)=O)cn(C4CCCCC4)c3n2)CC1` [Cpd 33, 8-Cyclohexyl-2-[3-(4-methyl-piperazin-1-yl)-propylamino]-5-oxo-5,8-dihydro-pyrido[2,3-d]pyrimidine-6-carboxylic acid amide], the inhibition at 0.1 µM was found to be 31% and the inhibition at 1 µM turned out to be 70%.
Taken in the same sequence, the figures for `CONC(=O)c1cn(C2CCCCC2)c2nc(NCCCN3CCOCC3)ncc2c1=O` [Cpd 43, 8-Cyclohexyl-2-(3-morpholin-4-yl-propylamino)-5-oxo-5,8-dihydro-pyrido[2,3-d]pyrimidine-6-carboxylic acid methoxy-amide] were 32% and 60%.
Take `CONC(=O)c1cn(-c2ccc3c(c2)CCC3)c2nc(NCCc3ccc(OC)cc3)ncc2c1=O` [Cpd 24, 8-Indan-5-yl-2-[2-(4-methoxy-phenyl)-ethylamino]-5-oxo-5,8-dihydro-pyrido[2,3-d]pyrimidine-6-carboxylic acid methoxy-amide]: the inhibition at 0.1 µM amounted to 52% and the inhibition at 1 µM was 59%.
Regarding `CONC(=O)c1cn(-c2ccc3c(c2)CCC3)c2nc(NCCN3CCOCC3)ncc2c1=O` [Cpd 26, 8-Indan-5-yl-2-(2-morpholin-4-yl-ethylamino)-5-oxo-5,8-dihydro-pyrido[2,3-d]pyrimidine-6-carboxylic acid methoxy-amide], the inhibition at 0.1 µM came out at 25% and the inhibition at 1 µM stood at 54%.
Taken in the same sequence, the figures for `NC(=O)c1cn(C2CCCCC2)c2nc(NCCN3CCCC3)ncc2c1=O` [Cpd 36, 8-Cyclohexyl-5-oxo-2-(2-pyrrolidin-1-yl-ethylamino)-5,8-dihydro-pyrido[2,3-d]pyrimidine-6-carboxylic acid amide] were 5% and 49%.
Taken in the same sequence, the figures for `CNC(=O)c1cn(-c2ccc3c(c2)CCC3)c2nc(NCCCN3CCCC3=O)ncc2c1=O` [Cpd 14, 8-Indan-5-yl-5-oxo-2-[3-(2-oxo-pyrrolidin-1-yl)-propylamino]-5,8-dihydro-pyrido[2,3-d]pyrimidine-6-carboxylic acid methylamide] were 5% and 24%.
As to `CNC(=O)c1cn(C2CCCCC2)c2nc(NCCN3CCCCC3)ncc2c1=O` [Cpd 59, 8-Cyclohexyl-5-oxo-2-(2-piperidin-1-yl-ethylamino)-5,8-dihydro-pyrido[2,3-d]pyrimidine-6-carboxylic acid methylamide], the inhibition at 0.1 µM amounted to 5% and the inhibition at 1 µM was 11%.
For `COc1cc(CNc2ncc3c(=O)c(C(N)=O)cn(-c4ccc5c(c4)CCC5)c3n2)cc(OC)c1` [Cpd 11, 2-(3,5-Dimethoxy-benzylamino)-8-indan-5-yl-5-oxo-5,8-dihydro-pyrido[2,3-d]pyrimidine-6-carboxylic acid amide], the inhibition at 0.1 µM is 0% and the inhibition at 1 µM came to 50%.
